Assay results published in patent US20020137929A1, “1 - (3-heterocyclylphenyl) isothiourea, -isourea, -guanidine and -amidine herbicidal agents” (Intellectual Property Department, BASF Aktiengesellschaft, priority 1998, published 2002).

Key:
ORYSAT (Rice, Tebonnet) [1] = experiment: Rice tolerance to post-transplant applications, flooded paddy conditions (Table IV); type: in vivo, Oryza sativa, (L.) Tebonnet
Summary of the method: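 Flood-water application, about 0.0313–0.500 kg/ha a.i. in aqueous/acetone 50/50 v/v; water depth 1.5–3 cm throughout. Weeds 3–5 cm, rice 1.5–2.5 leaf. Greenhouse; 0–9 visual rating vs control at 3–4 wk.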

[2] = system: SAGPY (Arrowhead (Pygmaea)); experiment: Preemergence weed control under flooded paddy conditions; type: in vivo, Sagittaria pygmaea; conditions: rated 3-4 weeks after treatment
Summary of the method: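 Seeds or propagules sown in silt loam kept flooded 1.5-3 cm; compounds in 50/50 acetone/water pipetted into flood water at about 0.0313 to 0.500 kg/ha. Greenhouse; visual 0-9 rating versus untreated control 3-4 weeks after treatment.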

ORYSAT (Rice, Tebonnet) [3] = experiment: Preemergence herbicidal evaluation; type: in vivo, Oryza sativa, (L.) Tebonnet; conditions: rated 4-5 weeks after treatment
Summary of the method: (§1)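 Visual 0-9 rating vs control (stand, vigor, malformation, size, chlorosis, overall appearance), scored 4-5 wk after spraying. Seeded soil cups were treated preemergence with compound in aqueous acetone, ~0.0156-0.500 kg/ha equivalent.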

CASOB (Sicklepod) = experiment: Postemergence herbicidal evaluation; type: in vivo, Cassia obtusifolia; conditions: for CASOB herbicidal rating: postemergence
Summary of the method: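 Visual 0–9 rating versus control (stand, vigor, malformation, size, chlorosis, overall appearance), taken four to five weeks post-spray. Two-week-old seedlings received roughly 0.0156–0.500 kg/ha active in acetone/water (50/50) with 0.5% TWEEN 20 via nozzle at 40 psi.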

ORYSAT (Rice, Tebonnet) [4] = experiment: Rice tolerance to post-transplant applications, flooded paddy conditions (Table III); type: in vivo, Oryza sativa, (L.) Tebonnet
Summary of the method: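 Injury scored 0-9 by eye against untreated control, judging stand, vigor, malformation, size and chlorosis, three to four weeks after treatment. Compound in 50/50 aqueous/acetone, about 0.0313 to 0.500 kg/ha, was applied to paddy water (1.5 to 3 cm depth) three days after transplanting paired ten-day-old Tebonnet rice seedlings.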

[5] = system: GLXMAW (Soybean, Williams); experiment: Preemergence herbicidal evaluation; type: in vivo, Glycine max, (L.) Merr. cv Williams; conditions: rated 4-5 weeks after treatment
Summary of the method: as §1

[6] = system: TRZAWR (Wheat, Winter, cv Riband); experiment: Preemergence herbicidal evaluation; type: in vivo, Triticum aestivum; conditions: rated 4-5 weeks after treatment
Summary of the method: as §1

MOOVA (Monochoria) = experiment: Postemergence weed control under flooded paddy conditions; type: in vivo, Monochoria vaginalis; conditions: postemergence weeds, 3-4 weeks after treatment
Summary of the method: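 Injury ratings (0–9 scale covering stand, vigor, malformation, size, chlorosis and overall appearance versus control) were made three to four weeks after treatment. Test material, about 0.0313 to 0.500 kg/ha a.i. in 50/50 v/v aqueous/acetone, was added to flood water 1.5 to 3 cm deep over 3 to 5 cm weeds and 1.5 to 2.5 leaf rice.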

Row | Compound | Herbicidal rating ORYSAT (rice tolerance) (ORYSAT (Rice, Tebonnet) [1]; in vivo) | Herbicidal rating SAGPY ([2]; 0.1250 kg/ha) | Herbicidal rating SAGPY ([2]; 0.2500 kg/ha) | Preemergence herbicidal rating ORYSAT (ORYSAT (Rice, Tebonnet) [3]; rate 0.0313 kg/ha) | Preemergence herbicidal rating ORYSAT (ORYSAT (Rice, Tebonnet) [3]; rate 0.0625 kg/ha) | Preemergence herbicidal rating ORYSAT (ORYSAT (Rice, Tebonnet) [3]; rate 0.1250 kg/ha) | Preemergence herbicidal rating ORYSAT (ORYSAT (Rice, Tebonnet) [3]; rate 0.2500 kg/ha) | Herbicidal rating ORYSAT (rice tolerance) (ORYSAT (Rice, Tebonnet) [4]; in vivo) | Preemergence herbicidal rating GLXMAW ([5]; rate 0.0313 kg/ha) | Preemergence herbicidal rating GLXMAW ([5]; rate 0.0625 kg/ha) | Preemergence herbicidal rating GLXMAW ([5]; rate 0.1250 kg/ha) | Preemergence herbicidal rating GLXMAW ([5]; rate 0.2500 kg/ha) | Preemergence herbicidal rating TRZAWR ([6]; rate 0.0313 kg/ha) | Preemergence herbicidal rating TRZAWR ([6]; rate 0.0625 kg/ha) | Preemergence herbicidal rating TRZAWR ([6]; rate 0.1250 kg/ha) | Preemergence herbicidal rating TRZAWR ([6]; rate 0.2500 kg/ha) | Herbicidal rating MOOVA (MOOVA (Monochoria); rate 0.1250 kg/ha) | Herbicidal rating MOOVA (MOOVA (Monochoria); rate 0.2500 kg/ha) | also measured
1 | Cn1c(C(F)(F)F)cc(=O)n(-c2cc(N=C3SCC(=O)N3CCC(=O)O)c(Cl)cc2F)c1=O [Compound 30, 2-{{2-Chloro-5-[3,6-dihydro-3-methyl-2,6-dioxo-4-(trifluoromethyl)-1(2H)-pyrimidinyl]-4-fluorophenyl}imino}-4-oxo-3-thiazolidinepropionic acid] | 0.0 | 0.0 | 2.0 | 1.0 | 1.0 | 1.0 | 4.0 | 0.0 | 2.0 | 3.0 | 1.0 | 4.0 | 0.0 | 1.0 | 2.0 | 6.0 | 1.5 | 4.5 | Postemergence herbicidal rating CASOB (CASOB (Sicklepod); Rate 0.0158 kg/ha): 0.0; Postemergence herbicidal rating CASOB (CASOB (Sicklepod); Rate 0.0315 kg/ha): 0.0; Postemergence herbicidal rating CASOB (CASOB (Sicklepod); Rate 0.0630 kg/ha): 0.0
2 | O=C(O)CC1SC(=Nc2cc(N3C(=O)C4=C(CCCC4)C3=O)c(F)cc2Cl)N(CC(=O)O)C1=O (stereo not shown) [Compound 48, 2-{[2-Chloro-5-(1-cyclohexene-1,2-dicarboximido)-4-fluorophenyl]imino}-4-oxo-3,5-thiazolidinediacetic acid] |  | 3.0 | 6.0 | 0.0 | 0.0 | 0.0 | 3.0 |  | 0.0 | 0.0 | 0.0 | 2.0 | 0.0 | 0.0 | 0.0 | 2.0 | 3.0 | 6.0 | Herbicidal rating ORYSAT (rice tolerance) (ORYSAT (Rice, Tebonnet) [1]; rate 0.1250 kg/ha, flooded paddy, post-transplant rice, 3-4 weeks after treatment): 4.0; Herbicidal rating ORYSAT (rice tolerance) (ORYSAT (Rice, Tebonnet) [1]; rate 0.2500 kg/ha, flooded paddy, post-transplant rice, 3-4 weeks after treatment): 6.0; Preemergence herbicidal rating ORYSAT (ORYSAT (Rice, Tebonnet) [3]; rate 0.0156 kg/ha): 0.0; Postemergence herbicidal rating CASOB (CASOB (Sicklepod); Rate 0.0156 kg/ha): 0.0; Postemergence herbicidal rating CASOB (CASOB (Sicklepod); Rate 0.0313 kg/ha): 2.0; Postemergence herbicidal rating CASOB (CASOB (Sicklepod); Rate 0.0625 kg/ha): 3.0; Herbicidal rating ORYSAT (rice tolerance) (ORYSAT (Rice, Tebonnet) [4]; 0.1250 kg/ha, post-transplant rice, flooded paddy, rated 3-4 weeks after treatment): 4.0; Herbicidal rating ORYSAT (rice tolerance) (ORYSAT (Rice, Tebonnet) [4]; 0.2500 kg/ha, post-transplant rice, flooded paddy, rated 3-4 weeks after treatment): 6.0; Preemergence herbicidal rating GLXMAW ([5]; rate 0.0156 kg/ha): 0.0; Preemergence herbicidal rating TRZAWR ([6]; rate 0.0156 kg/ha): 0.0
3 | CCOC(=O)CN1C(=O)C(=C2CCCC2)SC1=Nc1cc(-n2c(=O)cc(C(F)(F)F)n(C)c2=O)c(F)cc1Cl [Compound 18, Ethyl 2-{{2-chloro-5-[3,6-dihydro-3-methyl-2,6-dioxo-4-(trifluoromethyl)-1(2H)-pyrimidinyl]-4-fluorophenyl}imino}-5-cyclopentylidene-4-oxo-3-thiazolidineacetate] | 3.0 |  |  |  |  |  |  | 3.0 |  |  |  |  |  |  |  |  |  |  | Herbicidal rating SAGPY ([2]; 0.1160 kg/ha): 0.0; Herbicidal rating SAGPY ([2]; 0.2310 kg/ha): 0.0; Herbicidal rating SAGPY ([2]; 0.4630 kg/ha): 6.0; ORYSAT preemergence herbicidal rating (ORYSAT (Rice, Tebonnet) [3]; rate 0.1250 kg/ha): 0.0; ORYSAT preemergence herbicidal rating (ORYSAT (Rice, Tebonnet) [3]; rate 0.2500 kg/ha): 0.0; CASOB herbicidal rating (CASOB (Sicklepod); rate 0.0158 kg/ha): 0.0; CASOB herbicidal rating (CASOB (Sicklepod); rate 0.0315 kg/ha): 1.0; CASOB herbicidal rating (CASOB (Sicklepod); rate 0.0630 kg/ha): 1.0; GLXMAW preemergence herbicidal rating ([5]; rate 0.1250 kg/ha): 0.0; GLXMAW preemergence herbicidal rating ([5]; rate 0.2500 kg/ha): 3.0; TRZAWR preemergence herbicidal rating ([6]; rate 0.1250 kg/ha): 0.0; TRZAWR preemergence herbicidal rating ([6]; rate 0.2500 kg/ha): 0.0; Herbicidal rating MOOVA (MOOVA (Monochoria); rate 0.1160 kg/ha): 9.0; Herbicidal rating MOOVA (MOOVA (Monochoria); rate 0.2310 kg/ha): 9.0; Herbicidal rating MOOVA (MOOVA (Monochoria); rate 0.4630 kg/ha): 9.0
